Reference: patent publication US20200038399A1, “FORMULATIONS, METHODS, KIT, AND DOSAGE FORMS FOR TREATING BACTERIAL INFECTION” (Motif BioSciences Inc., priority 2016, published 2020)
Like-named read-outs stand apart in the source and are kept apart here.

Tests used:
[1] = system: S. pneumoniae 1/1; experiment: checkerboard synergy assay with iclaprim; type: cell-based, Streptococcus pneumoniae; conditions: antibiotic in combination with iclaprim
[2] = system: S. aureus 101; experiment: checkerboard synergy assay with iclaprim; type: cell-based, Staphylococcus aureus; conditions: antibiotic in combination with iclaprim
[3] = system: S. aureus 101; experiment: MIC determination; type: cell-based, Staphylococcus aureus; conditions: Staphylococcus aureus, 101, 18 h; read-out: Minimum inhibitory concentrations (MIC)
Outline: (§1)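 Visible-growth endpoint after 18 h, 37 °C. Cation-adjusted Mueller-Hinton broth was used for K. pneumoniae and S. aureus in ambient air; H. influenzae (HTM) and M. catarrhalis (Brain Heart Infusion) were incubated under 5% CO2.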

[4] = system: S. pneumoniae 1/1; experiment: MIC determination; type: cell-based, Streptococcus pneumoniae; conditions: Streptococcus pneumoniae; S. pneumoniae 1/1; 18 hours at 37° C., 5% CO2; read-out: Minimum inhibitory concentrations (MIC)
[5] = system: Streptococcus pneumoniae ATCC 49619; experiment: checkerboard synergy assay with iclaprim; type: cell-based; conditions: antibiotic in combination with iclaprim; S. pneumoniae 49619
[6] = system: Klebsiella pneumoniae ATCC 33495; experiment: checkerboard synergy assay with iclaprim; type: cell-based; conditions: antibiotic in combination with iclaprim; K. pneumoniae 33495
[7] = system: Haemophilus influenzae ATCC 49766; experiment: checkerboard synergy assay with iclaprim; type: cell-based; conditions: antibiotic in combination with iclaprim; H. influenzae 49766
[8] = system: Moraxella catarrhalis RA 21; experiment: checkerboard synergy assay with iclaprim; type: cell-based; conditions: antibiotic in combination with iclaprim; M. catarrhalis RA 21
[9] = system: Staphylococcus aureus ATCC 25923; experiment: checkerboard synergy assay with iclaprim; type: cell-based; conditions: antibiotic in combination with iclaprim; S. aureus 25923
[10] = system: Streptococcus pneumoniae ATCC 49619; experiment: MIC determination; type: cell-based; conditions: Streptococcus pneumoniae, ATCC49619; S. pneumoniae 49619; 18 hours at 37° C., 5% CO2; read-out: Minimum inhibitory concentrations (MIC)
[11] = system: Klebsiella pneumoniae ATCC 33495; experiment: MIC determination; type: cell-based; conditions: Klebsiella pneumoniae, ATCC33495; K. pneumonia 33495; 18 hours at 37° C.; read-out: Minimum inhibitory concentrations (MIC)
Outline: as §1

[12] = system: Haemophilus influenzae ATCC 49766; experiment: MIC determination; type: cell-based; conditions: Haemophilus influenzae, read-out: Minimum inhibitory concentrations (MIC)
Outline: as §1

[13] = system: Moraxella catarrhalis RA 21; experiment: MIC determination; type: cell-based; conditions: Moraxella catarrhalis, RA21; M. catarrhalis RA 21; 18 hours at 37° C., 5% CO2; read-out: Minimum inhibitory concentrations (MIC)
Outline: as §1

[14] = system: Staphylococcus aureus ATCC 25923; experiment: MIC determination; type: cell-based; conditions: Staphylococcus aureus, ATCC25923; S. aureus 25923; 18 hours at 37° C.; read-out: Minimum inhibitory concentrations (MIC)
Outline: as §1

[15] = ATCC49766, H. Influenza 49766, 18 hours at 37° C., 5% CO2

| Compound | Σ FIC [1] | Σ FIC [2] | MIC [3] | MIC [4] | Σ FIC [5] | Con (Conclusion) [6] | Σ FIC [6] | Con (Conclusion) [7] | Σ FIC [7] | Con (Conclusion) [8] | Σ FIC [8] | Σ FIC [9] | MIC [10] | MIC [11] | MIC [12, 15] | MIC [13] | MIC [14] | MIC ([12]; ATCC49766, 18 h) |
| --- | --- | --- | --- | --- | --- | --- | --- | --- | --- | --- | --- | --- | --- | --- | --- | --- | --- | --- |
| CO[C@@H]1[C@@H](OC(N)=O)[C@@H](O)[C@H](Oc2ccc3c(O)c(NC(=O)c4ccc(O)c(CC=C(C)C)c4)c(=O)oc3c2C)OC1(C)C [Novobiocin] | 1.03-1.50 | 1.03-1.50 | 0.25 µg/mL | 4 µg/mL | 0.75-1.13 | Ind (Indifference (Ind)) | 1.00-1.25 | Ind (Indifference (Ind)) | 1.03-1.50 | Ind (Indifference (Ind)) | 1.00-1.05 | 1.02-1.50 | 2 µg/mL | 128 µg/mL | 0.25 µg/mL | 0.25 µg/mL | 0.5 µg/mL |  |
| CC(=O)O[C@H]1C[C@@]2(C)[C@@H](C[C@@H](O)[C@H]3[C@@]4(C)CC[C@@H](O)[C@@H](C)[C@@H]4CC[C@@]32C)/C1=C(\CCC=C(C)C)C(=O)O [Fusidic acid] | 1.06-1.50 | 1.06-1.50 | 0.125 µg/mL | 8 µg/mL | 1.13-1.50 | Ind (Indifference (Ind)) | 1.00-1.25 | Ind (Indifference (Ind)) | 1.06-1.50 | Ind (Indifference (Ind)) | 1.00-1.00 | 2.03-2.50 | 4 µg/mL | > 128 µg/mL | 1 µg/mL | < 0.008 µg/mL | 0.25 µg/mL |  |
| CC[C@H]1OC(=O)[C@H](C)[C@@H](O[C@H]2C[C@@](C)(OC)[C@@H](O)[C@H](C)O2)[C@H](C)[C@@H](O[C@@H]2O[C@H](C)C[C@H](N(C)C)[C@H]2O)[C@](C)(O)C[C@@H](C)/C(=N\OCOCCOC)[C@H](C)[C@@H](O)[C@]1(C)O [Roxithromycin] | 0.75-1.13 | 1.01-1.80 | > 128 µg/mL | 0.5 µg/mL | 1.02-1.50 | Ind (Indifference (Ind)) | 1.01-1.50 | Ind (Indifference (Ind)) | 1.03-1.50 | Ind (Indifference (Ind)) | 1.03-1.50 | 1.06-1.50 | 0.5 µg/mL | > 128 µg/mL | 16 µg/mL | 0.25 µg/mL | 1 µg/mL |  |
| CC[C@H]1OC(=O)[C@H](C)[C@@H](O[C@H]2C[C@@](C)(OC)[C@@H](O)[C@H](C)O2)[C@H](C)[C@@H](O[C@@H]2O[C@H](C)C[C@H](N(C)C)[C@H]2O)[C@](C)(O)C[C@@H](C)C(=O)[C@H](C)[C@@H](O)[C@]1(C)O [Erythromycin] | 1.06-1.50 | 1.01-1.50 | > 128 µg/mL | 0.125 µg/mL | 1.06-1.50 | Ad (Additivity (Ad)) |  | Ad (Additivity (Ad)) | 0.75-1.00 | Ind (Indifference (Ind)) | 1.06-1.50 | 1.13-1.50 | 0.125 µg/mL | 128 µg/mL | 8 µg/mL | 0.125 µg/mL | 0.5 µg/mL |  |
| CN(C)[C@@H]1C(O)=C(C(N)=O)C(=O)[C@@]2(O)C(O)=C3C(=O)c4c(O)cccc4[C@@](C)(O)[C@H]3C[C@@H]12 [Tetracycline, Tetracyclin] | 0.75-1.13 | 1.02-2.50 | 128 µg/mL | 16 µg/mL | 0.75-1.25 | Ad (Additivity (Ad)) | 0.56-1.03 | Ad (Additivity (Ad)) | 0.56-1.25 | Ind (Indifference (Ind)) | 1.13-1.50 | 2.05-2.48 | 0.25 µg/mL | 128 µg/mL |  | 0.25 µg/mL | 0.5 µg/mL | 0.5 µg/mL |
